Assay results: patent publication US20260314597A1, “A NOVEL APPROACH TO INTERFERE IN THE PHENYLPROPANOID BIOSYNTHETIC PATHWAY TO REDUCE PINK-RIB DISORDER IN FRESH LETTUCE” (University of Florida Research Foundation, Inc., priority 2022, published 2026)

Key:
cassava roots = details: cited from earlier work
romaine lettuce midribs = test: Pink rib discoloration of romaine midribs / whole leaflets dipped 1 min, stored at 10° C.; type: in vivo
Experimental: Pink rib discoloration in excised midrib segments of romaine lettuce was shown above. […] 4.3 mM of melatonin solution was prepared in water containing 0.5% DMSO (dimethyl sulfoxide), and control samples were treated with water containing 0.5% DMSO.
1 mM of melatonin solution was prepared in water containing 0.5% DMSO (dimethyl sulfoxide) and control samples were treated with water containing 0.5% DMSO.

fresh-cut cherimoya = details: L-cysteine 0.5% or 41.3 mM; 0° C.; cited from earlier work
PPO = details: role: inhibitor; L-cysteine 1 to 5 mM; cited from earlier work
[1] = melatonin, cassava root, vs untreated

| SMILES | key enzymes in the melatonin biosynthesis pathway (cassava roots; cassava) | antioxidant capacity (cassava roots; [1]) | reactive oxygen species (ROS) levels (cassava roots; [1]) | antioxidative enzymes that reduce hydrogen peroxide accumulation (cassava roots; melatonin, cassava) | pink rib discoloration vs control (romaine lettuce midribs; melatonin 1 mM in 0.5% DMSO, 4 days) | pink rib discoloration vs control (romaine lettuce midribs; melatonin 4.3 mM in 0.5% DMSO, five days, whole leaflet) | delay of pulp browning (fresh-cut cherimoya) | PPO activity (PPO) |
| --- | --- | --- | --- | --- | --- | --- | --- | --- |
| COc1ccc2[nH]cc(CCNC(C)=O)c2c1 [melatonin] | Upregulation | increased | declined | activated | less pink rib discoloration than control samples | less pink rib discoloration than control samples |  |  |
| N[C@@H](CS)C(=O)O [L-cysteine] |  |  |  |  |  |  | up to 12 d | linear decline in PPO activity |
